Patent US20110086826A1, “LIPOSOMAL CAMPTOTHECINS AND USES THEREOF” (TEKMIRA PHARMACEUTICALS CORPORATION, priority 2000, published 2011)
Like-named read-outs stand apart in the source and are kept apart here. Marks after values point to notes of the source that are not given here.

Columns and labels:
[1] = Serum chemistry panel; format: in vivo, ICR mice; conditions: 10 mg/kg i.v., day 3 post-injection
Procedure: Myelosuppression and neutropenia studies. […] Empty vesicles were administered as a control. CBC and differential analysis was performed at Central Labs for Veterinarians (Langley, BC) to quantify cellular levels, ratios and morphology.

[2] = Pharmacokinetic and in vivo leakage studies; design: species or system ICR mice; conditions: plasma, i.v.
Procedure: 5. Pharmacokinetic and in vivo leakage studies. […] Two different drug-to-lipid ratios, i.e., 0.10 (w/w) and 0.02 (w/w), were used to examine the influence of drug-to-lipid ratio and lipid dose on drug leakage and PK behavior. Encapsulated topotecan was administered at 1 mg/kg (10 or 50 mg/kg lipid) and 5 mg/kg topotecan (50 mg/kg lipid). […] Total topotecan in blood was determined by a fluorescence assay preceded by precipitation of plasma proteins. Topotecan was quantified by spectrofluorimetry at an excitation (2.5 nm slit width) and emission wavelength (2.5 nm slit width) of 380 and 518 nm, respectively. Lipid levels in plasma were determined by liquid scintillation counting of the [^3H]-CHE label.
All parameters were derived from one or two-compartment models using WINNONLIN PK modeling software.

[3] = cited from earlier work
[4] = MTD of free topotecan in humans; conditions: 1.5 vs 14 mg/M^2
[5] = test system: MX-1 human breast xenografts; experiment: Subcutaneous MX-1 human breast xenografts
Text: FIG. 5. […] Data is from NCTEF-004.
FIG. 7. […] Data is from NCTEF-006.
FIG. 8. […] Data is from NCTEF-009.

[6] = Topotecan lactone species in plasma; format: in vivo, mice; conditions: after only 5 minutes
[7] = test system: CT-26 murine colon metastases; experiment: Intrasplenic CT-26 murine colon metastases model; conditions: for % ILS (increase in lifespan) / DRD (drug related deaths) / MWL (maximum mean weight loss) / TF (tumor free animals at end of study): CT-26 i.s.
Procedure: FIG. 4. […] CT-26 cells (10^4 cells in 50 μl) were injected into the spleen of Balb/c mice on day 0. […] Each group consisted of 8 animals. Data is from NCTEF-002.
In the above formula, MTD is the maximum tolerated dose, defined as that dose that causes a mean weight loss of 20% in a group of animals; and MED is the minimal effective dose, defined as the dose that produces an optimal % T/C value of ≦40 in the solid tumor models or an % ILS of 50±10% in the survival models.

[8] = MX-1 s.c., q3dx4, 1.25 mg/kg/dose i.v.
[9] = MX-1 s.c., q3dx4, 10 mg/kg/dose i.v.
[10] = MX-1 s.c., q7dx3, 5 mg/kg/dose i.v.
[11] = MX-1 s.c., q7dx3, 10 mg/kg/dose i.v.
[12] = MX-1 s.c., single dose 5, 10 and 40 mg/kg
[13] = MX-1 s.c., single i.v. dose 5 mg/kg
[14] = MX-1 s.c., single i.v. dose 10 mg/kg
[15] = MX-1 s.c., single i.v. dose 40 mg/kg

CC[C@@]1(O)C(=O)OCc2c1cc1n(c2=O)Cc2cc3c(CN(C)C)c(O)ccc3nc2-1 [Free, 9-dimethylaminomethyl-10-hydroxy-camptothecin]
ALT [1]: 13 ± 23 IU/L | Albumin [1]: 32.8 ± 1.3 g/L | BUN [1]: 9.4 ± 3.2 mmol/L | Bilirubin [1]: 3.8 ± 0.8 µmol/L | CPK [1]: 56 ± 38 IU/L | Creatinine [1]: 82 ± 18 µmol/L | Globulin [1]: 15.2 ± 1.1 g/L | TP [1]: 48.0 ± 2.1 g/L | α1/2 ([2]; 1 mg/kg): 0.14 h | β1/2 ([2]; 1 mg/kg): 11.8 h | α1/2 ([2]; 5 mg/kg): 0.26 h | β1/2 ([2]; 5 mg/kg): 11.4 h | LD10 ([3]; mouse, in vivo): 14 mg/M2/dose | LD10 ([3]; qd×5 schedule, Grochow et al.): ~4.7 mg/kg/dose | human tolerated dose as share of the MTD in mice [4]: 11% | anti-tumor activity (in words) ([5]; MX-1, q7d×3, 5 or 10 mg/kg/dose): little activity was observed | % ILS (increase in lifespan) [5, 8]: 20% | DRD (drug related deaths) [5, 8]: 0/6 | LCK (log cell kill, gross) [5, 8]: 0.17 | MWL (maximum mean weight loss) [5, 8]: +^h | TF (tumor free animals at end of study) [5, 8]: 0/6 | DRD (drug related deaths) [5, 9]: 0/6 | LCK (log cell kill, gross) [5, 9]: 0.21 | MWL (maximum mean weight loss) [5, 9]: + | TF (tumor free animals at end of study) [5, 9]: 1/6 | DRD (drug related deaths) [5, 10]: 0/6 | LCK (log cell kill, gross) [5, 10]: 0.15 | MWL (maximum mean weight loss) [5, 10]: + | TF (tumor free animals at end of study) [5, 10]: 0/6 | % T/C (optimal) [5, 11]: 61% | DRD (drug related deaths) [5, 11]: 0/6 | MWL (maximum mean weight loss) [5, 11]: −0.8% | TF (tumor free animals at end of study) [5, 11]: 0/6 | body weight [5, 12]: all animals gained weight | drug-related deaths [5, 12]: No drug-related deaths were observed | % ILS (increase in lifespan) [5, 13]: 0% | % T/C (optimal) [5, 13]: 78% | DRD (drug related deaths) [5, 13]: 0/6 | LCK (log cell kill, gross) [5, 13]: 0.02 | MWL (maximum mean weight loss) [5, 13]: + | T − C (tumor growth delay) [5, 13]: 0.2 days | TF (tumor free animals at end of study) [5, 13]: 0/6 | % ILS (increase in lifespan) [5, 14]: 13% | DRD (drug related deaths) [5, 14]: 0/6 | LCK (log cell kill, gross) [5, 14]: 0.12 | MWL (maximum mean weight loss) [5, 14]: + | TF (tumor free animals at end of study) [5, 14]: 0/6 | % ILS (increase in lifespan) [5, 15]: 35% | % T/C (optimal) [5, 15]: 24% | DRD (drug related deaths) [5, 15]: 0/6 | LCK (log cell kill, gross) [5, 15]: 0.35 | MWL (maximum mean weight loss) [5, 15]: + | TF (tumor free animals at end of study) [5, 15]: 0/6 | topotecan present in plasma as the lactone species [6]: 48% | % ILS ([7]; CT-26, single dose, over the dose range 5-40 mg/kg): 23-60% | % ILS (increase in lifespan) ([7]; single i.v. dose 5 mg/kg): 31% | DRD (drug related deaths) ([7]; single i.v. dose 5 mg/kg): 0/8 | MWL (maximum mean weight loss) ([7]; single i.v. dose 5 mg/kg): + | TF (tumor free animals at end of study) ([7]; single i.v. dose 5 mg/kg): 0/8 | % ILS (increase in lifespan) ([7]; single i.v. dose 10 mg/kg): 23% | DRD (drug related deaths) ([7]; single i.v. dose 10 mg/kg): 0/8 | MWL (maximum mean weight loss) ([7]; single i.v. dose 10 mg/kg): + | TF (tumor free animals at end of study) ([7]; single i.v. dose 10 mg/kg): 0/8 | DRD (drug related deaths) ([7]; single i.v. dose 40 mg/kg): 0/8 | MWL (maximum mean weight loss) ([7]; single i.v. dose 40 mg/kg): −0.4% | TF (tumor free animals at end of study) ([7]; single i.v. dose 40 mg/kg): 1/8
